The record followed here is ChEMBL document CHEMBL5104164, “Design, synthesis, and biological evaluation of pyrrolopyrimidine derivatives as novel Bruton's tyrosine kinase (BTK) inhibitors” (Eur J Med Chem, 2022).

Bounds are passed on as bounds.

Data set [1] relates to Raji. Description: Antiproliferative activity against human Raji cells incubated for 72 hrs by CellTiter-Glo assay. It counts as functional, cell-based. (In general: In ATP-based viability assays light output follows the ATP content of the culture.)
Data set [2] concerns DOHH-2. Description: Antiproliferative activity against human DOHH-2 cells incubated for 72 hrs by CellTiter-Glo assay. Type of data set: functional, cell-based. As to conditions: DOHH-2, 72 h.
Data set [3] has as its system SUD4. Description: Antiproliferative activity against human SU-DHL-4 cells incubated for 72 hrs by CellTiter-Glo assay. As to conditions: SU-DHL-4, 72 h. It counts as functional, cell-based.
Data set [4] has as its system Rec1. As to the kind of experiment: Antiproliferative activity against human REC1 cells incubated for 72 hrs by CellTiter-Glo assay. Type of data set: functional, cell-based. As to conditions: Rec1, 72 h.
For data set [5], the system named is OCI-Ly3. Description: Antiproliferative activity against human OCILY3 cells incubated for 72 hrs by CellTiter-Glo assay. Type of data set: functional, cell-based. As to conditions: OCI-Ly3, 72 h.
The test system of data set [6] is SU-DHL-6. As to the kind of experiment: Antiproliferative activity against human SU-DHL-6 cells incubated for 72 hrs by CellTiter-Glo assay. It counts as functional, cell-based. As to conditions: SU-DHL-6, 72 h.
Data set [7] concerns TMD8. As to the kind of experiment: Antitumor activity against human TMD8 cells xenografted in female CB-17 SCID nude mouse assessed as tumor growth inhibition at 25 mg/kg, po administered twice daily for 21 days. It counts as functional. As to conditions: TMD8, 504 h, time 21 day, read-out: TGI. Background: Xenograft models place foreign cells or tissue in a host animal.
Data set [8] is described as follows: Antiproliferative activity against human MINO cells incubated for 72 hrs by CellTiter-Glo assay. It counts as functional, cell-based.
The subject of data set [9] is Pfeiffer. As to the kind of experiment: Antiproliferative activity against human Pfeiffer cells incubated for 72 hrs by CellTiter-Glo assay. It counts as functional, cell-based.
For data set [10], the system named is TMD8. As to the kind of experiment: Antiproliferative activity against human TMD8 cells incubated for 72 hrs by CellTiter-Glo assay. As to conditions: TMD8, 72 h.
Data set [11] can be described thus: Toxicity in female CB-17 SCID nude mouse xenografted with human TMD8 cells assessed as effect on body weight at 25 mg/kg, po administered twice daily for 21 days. Type of data set: organism-based. As to conditions: in vivo, 504 h, time 21 day.
The test system of data set [12] is Ramos. As to the kind of experiment: Antiproliferative activity against human Ramos cells incubated for 72 hrs by CellTiter-Glo assay. Type of data set: functional, cell-based.

As a reminder, the IC50 is the concentration that gives 50% inhibition. A higher IC50 goes with weaker potency.

For the compound `C=CC(=O)N1CCC[C@@H](n2nc(-c3ccc(Oc4ccccc4)cc3)c3c(N)ncnc32)C1` [IBRUTINIB], the IC50 in [1] was more than 10 µM; in data set [2], 506 nM; in [3], 804 nM; in data set [4], 0.8 nM; in data set [5], more than 10 µM; in data set [6], 1500 nM. In addition, the IC50 is more than 10 µM in [8], 1650 nM in [9], 2.7 nM in data set [10] and 2090 nM in data set [12]. In [7], the inhibition in vivo at 25 mg/kg was 103%. In data set [11], the Activity entry is on record as “Non-Toxic”.
